Results published in paper PMC11001709, “Anti-toxoplasma activity and DNA-binding of copper(II) and zinc(II) coordination compounds with 5-nitroimidazole-based ligands” (Journal of Biological Inorganic Chemistry, 2023).
Several values for one entry are separate records, joined by “and”; a condition that tells them apart may be missing. Equal entries are not always repeated.

Assays:
pBR322 plasmid DNA = test: Agarose gel electrophoresis, DNA cleavage; assay type: biochemical
Description: Electrophoresis assays were performed in 1.5% agarose gel and 1× TBE buffer using the DNA plasmid pBR322. The plasmid (15 µM base pairs) was incubated with 10 and 50 μM concentrations of the coordination compounds for 1 h at 37 °C in presence and absence of ascorbic acid (50 μM) as reducing agent and hydrogen peroxide (500 µM) as ROS generator in a final volume of 20 μL. The DNA-cleaving compound [Cu(phen)2(H2O)](NO3)2 was used as reference. The samples were loaded into the gel with 4 μL of a loading buffer (30% glycerol, 5 mM xylene cyanol), and electrophoresis was performed in 1× TBE at 100 V for 1 h in a Bio-Rad horizontal tank. Subsequently, the gel was stained with SYBR™ Safe overnight and images were acquired with a Gel Doc EZ Imager instrument (Bio-Rad).
Distinct forms of pBR322 plasmid DNA are commonly observed by gel electrophoresis due to the conformational changes that present distinct electrophoretic mobility: (1) supercoiled DNA (Form I) that migrates faster on the gel, (2) circular nicked (Form II), obtained from a one-strand scission, has a slower migration through the gel and (3) linear form (Form III) is generated when both strands are cleaved and migrates between forms I and II [54]. The interaction of the free ligands and their copper(II) and zinc(II) coordination compounds with pBR322 was investigated in presence of H2Asc (50 μM) as reducing agent and H2O2 (500 μM) as ROS generator. Solutions of 10 and 50 µM of the coordination compounds were incubated with the DNA at 37 °C for 1 h.

[1] = Distribution coefficient LogD7.4, shake-flask 1-octanol/MOPS buffer; assay type: physicochemical; conditions: 25 °C
Description: Solutions between 100 and 10 µM of the free ligands (cenz and onz) and the coordination compounds 3–10 were prepared in a MOPS buffer pH 7.4 as the aqueous phase and in 1-octanol as the organic phase. The absorption at 320 nm and 310 nm was determined for the aqueous and organic phase respectively by electronic spectroscopy (UV–Vis). Through a linear regression (concentration vs. absorption) the molar extinction coefficient of each compound in both phases was determined (Table 3). The lipophilicity was calculated in the 1-octanol/water system from the shake flask method using Eq. 1 [39]:1 […] where, Co is the final concentration in the organic phase and Cw is the final concentration in the aqueous phase (MOPS buffer at 10^–2 M pH 7.4). Both phases were presaturated with 50 µM solutions of the free ligands or 500 µM of each coordination compound and their UV spectrum was recorded. Both phases were combined and kept stirring for 3 h at 25 °C and in the absence of light. Subsequently, the mixture was centrifuged at 400g and the concentration in both phases was determined by UV–Vis spectroscopy using the Beer-Lambert law. The assays were performed in triplicate.
The T gondii parasite is an apicomplex organism; it requires a host cell to live, so it is important that the drugs used against the parasite have easy access to the cell. The lipophilicity of a compound is an important physicochemical property to determine its ability to permeate the biological membrane through passive diffusion; which usually is measured from the distribution coefficient logD7.4 = log(Co/Cw), in n-octanol/water. The shake-flask method was used to determine the LogD7.4 values from the molar extinction coefficients of the coordination compounds and the ligands in the two solvents (Table 3).

ct-DNA [2] = test: Competitive displacement of Hoechst 33258 from DNA (fluorescence); assay type: binding, calf; conditions: Hoechst 33258 1.9 µM, [DNA]b = 30 µM, compound 0-50 µM, 1 h
Description: (§1) For the UV–Vis, fluorescence and circular dichroism assays the concentration of ct-DNA was determined on a Varian Cary 100 Scan spectrophotometer from the absorption at 260 nm and the corresponding molar absorptivity of 6600 M^−1 cm^−1 (nucleobase concentration). The stock solutions of the coordination compounds and the free ligands were prepared in cacodylate/NaCl buffer (1 mM cacodylic acid and 20 mM sodium chloride) at pH 7.25. The final samples contained a DMSO concentration of 0.2%.
Emission intensity of the dyes DNA-intercalator ethidium bromide, EB (λexc = 514 nm) and the minor-groove binder Hoechst 33,258 (λexc = 350 nm) was measured on iHR320 HORIBA JOBIN YVON spectrofluorometer. The samples contained 15 µM (in base pairs) of ct-DNA and 75 µM of EB […] in cacodylate/NaCl buffer. The respective dye was incubated for 30 min with ct-DNA to allow its binding to the biomolecule. Subsequently, increasing amounts of coordination compounds (0–50 µM) were added up to a final volume of 2 mL, and the samples were incubated for 1 h at 37 °C. The fluorescence spectra of all samples were recorded at room temperature. The affinity of the compounds for ct-DNA compared to EB was evaluated through the Stern–Volmer quenching constant Ksv, from Eq. 3:3 I0/I=1+Ksvcompound where I0 and I are the emission intensities in absence and the presence of the compound, respectively.
Competitive binding assays were carried out with Hoechst 33,258. This dye binds to B-DNA, especially those with an AT-rich sequence giving a fluorescent signal at 458 nm when excited at 350 nm. As for to the EB assays, DNA (30 µM) was incubated for 30 min with Hoechst 33,258 (1.9 µM) and increasing amounts of the coordination compounds were subsequently added. In all cases, fluorescence quenching was observed (Fig. 9). As previously, the Ksv constants were determined (Fig. 9c and Table 4). The copper(II) compounds show Ksv values in the […] range (Table 4), indicating a groove binding behavior. For the zinc(II) compounds, the Ksv values are two orders of magnitude lower indicating weaker interactions, must likely of electrostatic nature.

ct-DNA [3] = test: Circular dichroism of ct-DNA; assay type: binding, calf; conditions: [DNA]b = 50 µM, [complex]/[DNA] 0-2, 1 h 37 °C
Description: as §1
Circular dichroism (CD) spectra were recorded using a JASCO-815 spectropolarimeter, equipped with xenon-arc lamp of 450 W. The sample compartment was air-purged with N2 before use. For the measurements, a quartz cuvette with an optical path of 5 mm was used. A solution of 25 µM (in base pairs) of ct-DNA in cacodylate/NaCl buffer was incubated for 1 h at 37 °C with increasing amounts of coordination compounds (0–50 µM). The CD spectra were recorded at room temperature.
The interaction of small molecules with DNA can modify these CD signals depending on the type of binding. Intercalative interactions increase the intensity of the signals, as the result of an increase of the stability of the B conformation, whereas groove binding or covalent interactions tend to decrease the intensity of these signals, which are moreover displaced. The CD spectra for both ligands and their copper(II) and zinc(II) complexes were obtained at constant concentration of ct-DNA, increasing the complex concentration up to two equivalents ([complex]/[DNA] ratios of 0, 0.2, 0.4, 1, 2) with respect to the nucleobases concentration ([DNA]b = 50 µM).

[4] = tested on: RH tachyzoites of Toxoplasma gondii; test: Viability of extracellular tachyzoites, Sytox Green exclusion test; assay type: cell-based; conditions: 2.5-40 µM, 1 h, PBS
Description: RH tachyzoites of Toxoplasma gondii were extracted in PBS solution at pH 7.4 from intraperitoneal fluid of infected CD1 mice on the third day of infection and centrifuged for ten minutes at 260g. Purified parasites were used within 4 h after their isolation.
The viability of the parasites was determined from staining with Sytox Green® fluorescent dye exclusion test. Purified tachyzoites (1 × 10^6) were incubated for one hour at room temperature with PBS solutions of the coordination compounds or the free ligands at concentrations of 40, 20, 10, 5, and 2.5 µM (0.1% DMSO), in a volume final of 1 mL. After the incubation time, the samples were centrifuged for 10 min at 250g, the medium was removed and 20 µL of Sytox Green® was added after 15 min of incubation for differentiate dead parasites in a Neubauer chamber. The assays were performed in triplicate. The half maximal inhibitory concentration (IC50) was calculated by Boltzmann regression analysis and expressed as mean ± standard error of three replicates. Based on the results the tachyzoites were incubated under the same conditions with the coordination compounds [Cu(onz)2Cl2] and [Cu(onz)2Br2] at their respective IC50 values, Sytox Green® was then added, and they were observed by fluorescence microscopy. Sulfadiazine was used as positive control.
Viability assays were performed against tachyzoites of Toxoplasma gondii. The RH strain was used to evaluate the effect of different concentrations (namely, 2.5, 5, 10, 20 and 40 µM) of the coordination compounds and the free 5-nitroimidazole against the tachyzoites. The evaluation were performed in PBS buffer (pH 7.4) with Sytox Green® exclusion test, which allows differentiating dead from live tachyzoites, since the intact cell membrane of alive ones is not stained.

[5] = compound 10 (mM in the source), + H2Asc
[6] = compound 10 (mM in the source), + H2Asc + H2O2
[7] = compound 10 (mM in the source), + H2O2
[8] = compound 10 (mM in the source), no additive
[9] = compound 50 (mM in the source), + H2Asc
[10] = compound 50 (mM in the source), + H2Asc + H2O2
[11] = compound 50 (mM in the source), + H2O2
[12] = compound 50 (mM in the source), no additive

| Structure (SMILES) | %Damage (pBR322 plasmid DNA; [5]) | %Nicked (pBR322 plasmid DNA; [5]) [%] | %Supercoiled (pBR322 plasmid DNA; [5]) [%] | %Damage (pBR322 plasmid DNA; [6]) [%] | %Damage (pBR322 plasmid DNA; [7]) | %Supercoiled (pBR322 plasmid DNA; [7]) | %Supercoiled (pBR322 plasmid DNA; [8]) | %Damage (pBR322 plasmid DNA; [9]) [%] | %Supercoiled (pBR322 plasmid DNA; [9]) [%] | %Damage (pBR322 plasmid DNA; [10]) [%] | %Damage (pBR322 plasmid DNA; [11]) [%] | %Nicked (pBR322 plasmid DNA; [11]) [%] | %Supercoiled (pBR322 plasmid DNA; [11]) [%] | %Damage (pBR322 plasmid DNA; [12]) [%] | %Supercoiled (pBR322 plasmid DNA; [12]) [%] | effect on CD spectrum of ct-DNA (bands at 275 and 245 nm) (ct-DNA [3]) | further results |
| --- | --- | --- | --- | --- | --- | --- | --- | --- | --- | --- | --- | --- | --- | --- | --- | --- | --- |
| O.O=[N+]([O-])[O-].O=[N+]([O-])[O-].[Cu+2].c1cnc2c(c1)ccc1cccnc12.c1cnc2c(c1)ccc1cccnc12 [Cu(phen), reference compound] | 100.00% and 94.90% | 64.80 | 5.10 | 100.00 | 80.70% and 79.00% | 19.30% and 21.00% | 81.70% and 93.20% |  |  |  |  |  |  |  |  |  |  |
| Cc1ncc([N+](=O)[O-])n1CCCl.Cc1ncc([N+](=O)[O-])n1CCCl.[Cl][Zn][Cl] [[Zn(cenz)2Cl2]] | 17.10% | 2.90 | 82.90 | 90.90 | 7.30% | 92.70% | 79.20% | 80.60 | 19.40 | 100.00 | 97.60 | 81.50 | 2.40 | 18.40 | 81.60 | spectra changes are minor | LogD7.4 ([1]; octanol/water (MOPS buffer 10^–2 M), 3 h): 0.86; %Nicked (pBR322 plasmid DNA; [6]): 2.10%; %Supercoiled (pBR322 plasmid DNA; [6]): 9.10%; %Nicked (pBR322 plasmid DNA; [7]): 6.50%; %Damage (pBR322 plasmid DNA; [8]): 20.80%; %Nicked (pBR322 plasmid DNA; [8]): 2.50%; %Nicked (pBR322 plasmid DNA; [9]): 40.60%; %Nicked (pBR322 plasmid DNA; [12]): 2.20%; Hoechst 33258 Ksv (ct-DNA [2]): 61000 M⁻¹ |
| Cc1ncc([N+](=O)[O-])n1CCCl [cenz, 1-(2-chloroethyl)-2-methyl-5-nitro-1H-imidazole] |  |  |  |  |  |  |  | 8.80 | 91.20 | 9.70 | 7.20 | 5.90 | 92.80 | 7.50 | 92.50 | did not affect the DNA structure | logD at 3 h ([1]; 1-octanol/MOPS buffer, pH 7.4, octanol/water (MOPS buffer 10^–2 M)): 0.72; %Nicked (pBR322 plasmid DNA; [10]): 4.00%; %Supercoiled (pBR322 plasmid DNA; [10]): 90.30%; DNA cleavage (in words) (pBR322 plasmid DNA; with and without H2Asc / H2O2): did not provoke any significant DNA cleavage; activity against T. gondii [4]: did not show activity |
